Among the data in patent publication US20120202794A1 (priority 2011, published 2012) are EC90 and CC90 values, retold here.

Each structure is given as a SMILES string. Bounds are passed on as bounds.

The test system of data set [1] is HCV Replicon 1b. Briefly: HCV inhibition assay, HCV replicon 1b (Clone A or ET-lunet cells; RT-PCR or luciferase reporter). To be noted: Hepatitis C virus, 96 h, HCV replicon 1b; 4 days incubation; read-out: Replicon 1b potency EC90. It counts as cell-based. In a few lines: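 Inhibition read either as luciferase signal (ET replicon) or as HCV 5′-NTR RNA by RT-PCR relative to rRNA, % = (1−2^−ΔΔCt)×100, against DMSO controls, giving EC50 and EC90. Cells: Clone A or ET-lunet, seeded 1500 or 3000/well, exposed 4 days at 37 °C, 5% CO2, 0.5% DMSO.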
On the technique in general: A replicon is a self-replicating genome or part of one, used to study replication in cells.

The nature of data set [2]: Cell cytotoxicity assay (MTS), CC90 as reported in Table 1, cell line not stated. In kind it is cell-based. To be noted: human, cell line not given. Put shortly:
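MTS read-out (490 nm, 2 h dye step) after 8-day exposure at 37° C. Huh7, HepG2, BxPC3 were seeded at 2×10^3 and CEM at 5×10^3 cells/well, with compound serially diluted from 100 μM. CC90 comes from comparison with untreated control wells.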

In general, EC90 refers to the point of the concentration-response curve where the effect stands at 90%. As for `CCC[C@H]1CN(C(=O)[C@@H]2C[C@H]2c2ccc(F)c(F)c2)[C@@H](CC(C)C)C(=O)N1` [Compound 257, (3S,6S)-4-[(1R,2R)-2-(3,4-Difluoro-phenyl)-cyclopropanecarbonyl]-3-isobutyl-6-propyl-piperazin-2-one], the EC90 in data set [1] was 0.59 µM. The same compound displayed a CC90 at 8 days in data set [2] of more than 10 µM.

As for `CC(C)C[C@H]1C(=O)N[C@@H](C2CCCCC2)CN1C(=O)[C@@H]1C[C@H]1c1ccc(F)c(F)c1` [Compound 258, (3S,6S)-6-Cyclohexyl-4-[(1R,2R)-2-(3,4-difluoro-phenyl)-cyclopropanecarbonyl]-3-isobutyl-piperazin-2-one], the EC90 in data set [1] turned out to be 0.56 µM. Moreover, the CC90 at 8 days in data set [2] is more than 10 µM.

With `CC(C)C[C@H]1C(=O)N[C@@H](C2CCCC2)CN1C(=O)[C@@H]1C[C@H]1c1ccc(F)c(F)c1` [Compound 259, (3S,6S)-6-Cyclopentyl-4-[(1R,2R)-2-(3,4-difluoro-phenyl)-cyclopropanecarbonyl]-3-isobutyl-piperazin-2-one], the EC90 in data set [1] is 0.59 µM. Further, the CC90 at 8 days in data set [2] was more than 10 µM.

Consider `CC(C)C[C@H]1C(=O)N[C@@H](c2ccccc2)CN1C(=O)[C@@H]1C[C@H]1c1ccc(F)c(F)c1` [Compound 260, (3S,6S)-4-[(1R,2R)-2-(3,4-Difluoro-phenyl)-cyclopropanecarbonyl]-3-isobutyl-6-phenyl-piperazin-2-one], for which the concentration for an effect of 90% (EC90) in data set [1] was found to be 0.23 µM. In addition, the CC90 at 8 days in data set [2] is more than 10 µM.

Regarding `CC(C)C[C@H]1CN(C(=O)/C=C/c2ccc(N(C)C)cc2)[C@@H](CC(C)C)C(=O)N1` [Compound 261, (3S,6S)-4-((E)-3-(4-(dimethylamino)phenyl)acryloyl)-3,6-diisobutylpiperazin-2-one], the EC90 in data set [1] was more than 10 µM. The CC90 at 8 days in data set [2] (MTS assay, 8 days incubation) is more than 10 µM.

Take `CC(C)C[C@H]1CN(C(=O)C#Cc2cccnc2)[C@@H](CC(C)C)C(=O)N1` [Compound 262, (3S,6S)-3,6-diisobutyl-4-(3-(pyridin-3-yl)propioloyl)piperazin-2-one]: in data set [1], the EC90 is more than 10 µM. In data set [2] (MTS assay, 8 days incubation), this compound displayed a CC90 at 8 days of more than 10 µM.

`COc1ccc(/C=C/C(=O)N2C[C@H](CC(C)C)NC(=O)[C@@H]2CC(C)C)cc1` [Compound 263, (3S,6S)-3,6-diisobutyl-4-((E)-3-(4-methoxyphenyl)acryloyl)piperazin-2-one]: in data set [1], the EC90 came to 8.7 µM. The CC90 at 8 days in data set [2] (MTS assay, 8 days incubation) is more than 10 µM.

Regarding `CC(C)C[C@H]1CN(C(=O)/C=C/c2cccc(Cl)c2)[C@@H](CC(C)C)C(=O)N1` [Compound 264, (3S,6S)-4-[3-(3-chlorophenyl)-acryloyl]-3,6-diisobutyl-piperazin-2-one], in data set [1], the EC90 turned out to be 8.1 µM. The same compound registered a CC90 at 8 days in data set [2] (MTS assay, 8 days incubation) of more than 10 µM.

`CC(C)C[C@H]1CN(C(=O)/C=C/c2ccccc2Cl)[C@@H](CC(C)C)C(=O)N1` [Compound 265, (3S,6S)-4-[3-(2-chlorophenyl)-acryloyl]-3,6-diisobutyl-piperazin-2-one]: the EC90 in data set [1] is 9.75 µM. The CC90 at 8 days in data set [2] (MTS assay, 8 days incubation) was more than 10 µM.

On to `CC(C)C[C@H]1CN(C(=O)/C=C/c2ccccc2F)[C@@H](CC(C)C)C(=O)N1` [Compound 266], for which, in data set [1], the EC90 was 7.93 µM. The CC90 at 8 days in data set [2] (MTS assay, 8 days incubation) was more than 10 µM.

Turning to `CC(C)C[C@H]1CN(C(=O)/C=C/c2ccc(Cl)cc2Cl)[C@@H](CC(C)C)C(=O)N1` [Compound 267, (3S,6S)-4-[3-(2,4-dichloro-phenyl)-acryloyl]-3,6-diisobutyl-piperazin-2-one], the concentration for an effect of 90% (EC90) in data set [1] was found to be 6.89 µM. In addition, the CC90 at 8 days in data set [2] (MTS assay, 8 days incubation) is more than 10 µM.

With `CSc1ccc(/C=C/C(=O)N2C[C@H](CC(C)C)NC(=O)[C@@H]2CC(C)C)cc1` [Compound 268, (3S,6S)-3,6-diisobutyl-4-((E)-3-(4-methylsulfanyl-phenyl)acryloyl)piperazin-2-one], the EC90 in data set [1] amounted to 9.8 µM. For the same compound, the CC90 at 8 days in data set [2] (MTS assay, 8 days incubation) was more than 10 µM.

Turning to `CC(C)C[C@H]1CN(C(=O)/C=C/c2ccc(C(C)(C)C)cc2)[C@@H](CC(C)C)C(=O)N1` [Compound 269, (3S,6S)-3,6-diisobutyl-4-((E)-3-(4-tert-butyl-phenyl)acryloyl)piperazin-2-one], the EC90 in data set [1] was determined as 8.9 µM. Further, the CC90 at 8 days in data set [2] (MTS assay, 8 days incubation) is more than 10 µM.

In the case of `COC(=O)c1ccc(/C=C/C(=O)N2C[C@H](CC(C)C)NC(=O)[C@@H]2CC(C)C)cc1` [Compound 270, Methyl 4-((E)-3-((2S,5S)-2,5-diisobutyl-3-oxopiperazin-1-yl)-3-oxoprop-1-en-1-yl)-benzoate], the EC90 in data set [1] was more than 10 µM. Moreover, in data set [2] (MTS assay, 8 days incubation), the CC90 at 8 days is more than 10 µM.

Turning to `CC(C)C[C@H]1CN(C(=O)/C=C/c2c(F)cccc2F)[C@@H](CC(C)C)C(=O)N1` [Compound 271, (3S,6S)-4-[3-(2,6-Difluoro-phenyl)-acryloyl]-3,6-diisobutyl-piperazin-2-one], in data set [1], the EC90 is more than 10 µM. In data set [2] (MTS assay, 8 days incubation), this compound showed a CC90 at 8 days of more than 10 µM.

As to `CC(C)C[C@H]1CN(C(=O)c2cc(-c3ccc(Cl)cc3)cs2)[C@@H](CC(C)C)C(=O)N1` [Compound 272, (3S,6S)-4-(4-(4-chlorophenyl)thiophene-2-carbonyl)-3,6-diisobutylpiperazin-2-one], the EC90 in data set [1] amounted to 3.56 µM. For the same compound, in data set [2] (MTS assay, 8 days incubation), the CC90 at 8 days was more than 10 µM.

`CC(C)C[C@H]1CN(C(=O)c2cc(-c3ccccc3Cl)on2)[C@@H](CC(C)C)C(=O)N1` [Compound 274, (3S,6S)-4-(5-(2-chlorophenyl)isoxazole-3-carbonyl)-3,6-diisobutylpiperazin-2-one]: the EC90 in data set [1] amounted to 5.95 µM. The CC90 at 8 days in data set [2] (MTS assay, 8 days incubation) was more than 10 µM.

Consider `CC(C)C[C@H]1CN(C(=O)c2cc(-c3ccc(Cl)cc3Cl)on2)[C@@H](CC(C)C)C(=O)N1` [Compound 275, (3S,6S)-4-(5-(2,4-dichlorophenyl)isoxazole-3-carbonyl)-3,6-diisobutylpiperazin-2-one], for which the EC90 in data set [1] was 6.31 µM. Also, the CC90 at 8 days in data set [2] (MTS assay, 8 days incubation) was more than 10 µM.

On to `CC(C)C[C@H]1CN(C(=O)c2cc(-c3ccc(Cl)c(Cl)c3)on2)[C@@H](CC(C)C)C(=O)N1` [Compound 276, (3S,6S)-4-(5-(3,4-Dichlorophenyl)isoxazole-3-carbonyl)-3,6-diisobutylpiperazin-2-one], for which the EC90 in data set [1] was 2.98 µM. Besides, in data set [2] (MTS assay, 8 days incubation), the CC90 at 8 days was more than 10 µM.

As for `CSc1ccc(-c2cc(C(=O)N3C[C@H](CC(C)C)NC(=O)[C@@H]3CC(C)C)no2)cc1` [Compound 277, (3S,6S)-3,6-diisobutyl-4-(5-(4-(methylthio)phenyl)isoxazole-3-carbonyl)piperazin-2-one], in data set [1], the EC90 amounted to 5.84 µM. This compound also gave a CC90 at 8 days in data set [2] (MTS assay, 8 days incubation) of more than 10 µM.

`CC(C)C[C@H]1CN(C(=O)Cc2cc(-c3ccc(F)cc3)on2)[C@@H](CC(C)C)C(=O)N1` [Compound 278, (3S,6S)-4-(2-(5-(4-fluorophenyl)isoxazol-3-yl)acetyl)-3,6-diisobutylpiperazin-2-one]: the EC90 in data set [1] worked out at 7.89 µM. Further, the CC90 at 8 days in data set [2] (MTS assay, 8 days incubation) was more than 10 µM.

For `CC(C)C[C@H]1C(=O)N[C@@H](CC(C)(C)C)CN1C(=O)[C@@H]1C[C@H]1c1ccccc1` [Compound 280, (3S,6S)-3-isobutyl-6-neopentyl-4-((1R,2R)-2phenylcyclopropanecarbonyl)piperazin-2-one], the EC90 in data set [1] is 8.65 µM. Moreover, the CC90 at 8 days in data set [2] (MTS assay, 8 days incubation) was more than 10 µM.

As to `CC(C)(C)C[C@H]1CN(C(=O)[C@@H]2C[C@H]2c2ccccc2)[C@@H](CC(C)(C)C)C(=O)N1` [Compound 281, (3S,6S)-3,6-dineopentyl-4-((1R,2R)-2-phenylcyclopropanecarbonyl)-piperazin-2-one], in data set [1], the EC90 is more than 10 µM. In data set [2] (MTS assay, 8 days incubation), this compound had a CC90 at 8 days of more than 10 µM.

Turning to `CCc1ccc(-c2cc(C(=O)N3C[C@H](CC(C)C)NC(=O)[C@@H]3CC(C)C)no2)cc1` [Compound 283, (3S,6S)-4-(5-(4-ethylphenyl)isoxazole-3-carbonyl)-3,6-diisobutylpiperazin-2-one], the EC90 in data set [1] is 8.75 µM. Besides, in data set [2] (MTS assay, 8 days incubation), the CC90 at 8 days is more than 10 µM.

With `CC(C)C[C@H]1CN(C(=O)c2cc(-c3ccc(C4CC4)cc3)on2)[C@@H](CC(C)C)C(=O)N1` [Compound 284, (3S,6S)-4-(5-(4-cyclopropylphenyl)isoxazole-3-carbonyl)-3,6-diisobutylpiperazin-2-one], the EC90 in data set [1] was more than 10 µM. Also, the CC90 at 8 days in data set [2] (MTS assay, 8 days incubation) was more than 10 µM.

In the case of `COc1ccc2c(c1)CCc1cc(C(=O)N3C[C@H](CC(C)C)NC(=O)[C@@H]3CC(C)C)sc1-2` [Compound 286, (3S,6S)-3,6-diisobutyl-4-(7-methoxy-4,5-dihydronaphtho[1,2-b]thiophene-2-carbonyl)piperazin-2-one], the EC90 in data set [1] is 3.91 µM. The compound further displayed a CC90 at 8 days in data set [2] (MTS assay, 8 days incubation) of more than 10 µM.

In the case of `CC(C)C[C@H]1CN(C(=O)c2cc(-c3cc(F)cc(F)c3)on2)[C@@H](CC(C)C)C(=O)N1` [Compound 287, (3S,6S)-4-(5-(3,5-difluorophenyl)isoxazole-3-carbonyl)-3,6-diisobutylpiperazin-2-one], in data set [1], the EC90 is 3.57 µM. The CC90 at 8 days in data set [2] (MTS assay, 8 days incubation) was more than 10 µM.

Consider `CC(C)C[C@H]1C(=O)N[C@@H](CC2CC2)CN1C(=O)c1cc(-c2ccc(F)cc2F)on1` [Compound 288, (3S,6S)-6-(cyclopropylmethyl)-4-(5-(2,4-difluorophenyl)isoxazole-3-carbonyl)-3-isobutylpiperazin-2-one], for which the EC90 in data set [1] was determined as 1.6 µM. Moreover, the CC90 at 8 days in data set [2] (MTS assay, 8 days incubation) was more than 10 µM.

Regarding `COc1ccc2c(c1)CCc1c(C(=O)N3C[C@H](CC(C)C)NC(=O)[C@@H]3CC(C)C)noc1-2` [Compound 289, (3S,6S)-3,6-diisobutyl-4-(7-methoxy-4,5-dihydronaphtho[2,1-d]isoxazole-3-carbonyl)piperazin-2-one], in data set [1], the EC90 turned out to be 5.01 µM. The compound further showed a CC90 at 8 days in data set [2] (MTS assay, 8 days incubation) of more than 10 µM.
